In brackets after ≈: the same amount, converted by molar mass. Activity calls are given as the source filed them.

Broadly, the MIC is the smallest concentration in the dilution series that meets the test's criterion for growth inhibition. A low value points to a more susceptible organism.

For one assay, the system named is Mycobacterium tuberculosis. Nature of the assay: Antimycobacterial activity against Mycobacterium tuberculosis Erdman infected in BALB/c mouse assessed as reduction of bacterial load at 200 mg/kg, po qd for 5 days per week administered 60 days after infection measured after 85 days post infection. The format is functional, organism-based. Set-up: dose 200 mg/kg.
Conditions: not given
Take `COc1ccc(-c2nc(C(=O)OCc3ccccc3)co2)cc1OC`: the result was inactive.
With `O=C(OCc1ccccc1)[C@@H]1COC(c2ccc(Cl)cc2)=N1`, the result was inactive.
`N#Cc1cccc(-c2nc(C(=O)OCc3ccccc3)co2)c1`: the outcome was inactive.
Take `O=C(OCc1ccccc1)c1coc(-c2cccnc2)n1`: the result was inactive.
Regarding `O=C(OCc1ccccc1)c1coc(-c2cccc(Cl)c2OCc2ccccc2)n1`, the outcome was inactive.
`O=C(OCc1ccccc1)[C@@H]1COC(c2cccc(Cl)c2OCc2ccccc2)=N1`: the outcome was inactive.
`CC(C)Oc1ccc(-c2nc(C(=O)OCc3ccccc3)co2)cc1`: the outcome was inactive.
On the same count and under the same terms, to `COc1ccc(C2=N[C@H](C(=O)OCc3ccccc3)CO2)cc1OC` belongs “inactive”; to `COC(=O)[C@@H]1COC(c2ccccc2OCc2ccccc2)=N1`, “inactive”.
As to `O=C(OCc1ccccc1)c1coc(-c2ccccn2)n1`, the result was inactive.
Turning to `O=C(OCc1ccccc1)[C@@H]1COC(c2ccc(Cl)c(F)c2)=N1`, the result was inactive.
Turning to `COC(=O)[C@@H]1COC(c2ccc([N+](=O)[O-])cc2)=N1`, the result was inactive.
For the compound `O=C(OCc1ccccc1)[C@@H]1COC(c2ccc(Br)nc2)=N1`, the outcome was inactive.
Regarding `O=C(OCc1ccccc1)[C@@H]1COC(c2ccc(F)cc2[N+](=O)[O-])=N1`, the outcome was inactive.
As to `Cc1ccc(-c2nc(C(=O)OCc3ccccc3)co2)cn1`, the outcome was inactive.
The same measure, in the same setting: next, `COc1ccc(-c2nc(C(=O)OCc3ccccc3)c(C)o2)cc1`: “inactive”.
Still for that read-out and setting: to `CCCCOc1ccc(-c2nc(C(=O)OCc3ccccc3)co2)cc1` belongs “inactive”; to `COC(=O)[C@@H]1COC(c2cccc(Cl)c2)=N1`, “inactive”; to `COc1ccccc1-c1nc(C(=O)OCc2ccccc2)co1`, “inactive”.
Regarding `O=C(OCc1ccccc1)c1coc(-c2ccc([N+](=O)[O-])cc2OCc2ccccc2)n1`, the result was inactive.
`Cc1oc(-c2ccccc2O)nc1C(=O)O`: the result was inactive.
Turning to `O=C(OCc1ccccc1)[C@@H]1COC(Cc2ccccc2)=N1`, the outcome was inactive.
Regarding `O=C(OCc1ccccc1)c1coc(-c2ccc(Cl)c(F)c2)n1`, the outcome was inactive.
For `O=C(OCc1ccccc1)[C@@H]1COC(c2cccc(F)c2)=N1`, the result was inactive.
For the compound `CC(C)Oc1ccc(C2=N[C@H](C(=O)OCc3ccccc3)CO2)cc1`, the outcome was inactive.
`O=C(OCc1ccccc1)c1coc(-c2cccnc2S(=O)(=O)c2ccccc2)n1`: the outcome was inactive.
Same read-out and setting: to `Cc1ccc(C2=N[C@H](C(=O)OCc3ccccc3)CO2)cn1` belongs “inactive”.

Another assay deals with Mycobacterium tuberculosis. The assay is described as follows: Antimycobacterial activity against Mycobacterium tuberculosis H37Rv ATCC 27294 in GAST medium after 1 week by microplate alamar blue assay. The class given is functional. The conditions noted are these: H37Rv ATCC 27294, 168 h. For orientation: Alamar Blue is a resazurin reagent that responds to reducing activity.
As to `COc1ccc(-c2nc(C(=O)OCc3ccccc3)co2)cc1OC`, inhibition of growth (MIC) required 17.5 µM (≈ 5.94 µg/mL).
`O=C(OCc1ccccc1)[C@@H]1COC(c2ccc(Cl)cc2)=N1` yielded a minimum inhibitory concentration (MIC) of 14.9 µM (≈ 4.7 µg/mL).
`N#Cc1cccc(-c2nc(C(=O)OCc3ccccc3)co2)c1` yielded a minimal inhibitory concentration (MIC) of 60.5 µM (≈ 18.4 µg/mL).
For `O=C(OCc1ccccc1)c1coc(-c2cccnc2)n1`, the lowest concentration to inhibit growth (MIC) was 6.2 µM (≈ 1.74 µg/mL). This MIC lies about 9.8-fold lower than the previous one.
Same read-out and setting: next, `O=C(OCc1ccccc1)c1coc(-c2cccc(Cl)c2OCc2ccccc2)n1`: over 128 µM.
The same measure, in the same setting: to `O=C(OCc1ccccc1)[C@@H]1COC(c2cccc(Cl)c2OCc2ccccc2)=N1` belongs 34 µM (≈ 14.3 µg/mL); to `CC(C)Oc1ccc(-c2nc(C(=O)OCc3ccccc3)co2)cc1`, 3.21 µM (≈ 1.08 µg/mL).
The compound `COc1ccc(C2=N[C@H](C(=O)OCc3ccccc3)CO2)cc1OC` displayed an MIC of 21.6 µM (≈ 7.37 µg/mL).
Same read-out and setting: next, `COC(=O)[C@@H]1COC(c2ccccc2OCc2ccccc2)=N1`: over 128 µM; `O=C(OCc1ccccc1)c1coc(-c2ccccn2)n1`: 2.47 µM (≈ 0.692 µg/mL).
In the case of `O=C(OCc1ccccc1)[C@@H]1COC(c2ccc(Cl)c(F)c2)=N1`, 6.49 µM (≈ 2.17 µg/mL) was the least that counted as inhibitory (MIC).
Regarding `COC(=O)[C@@H]1COC(c2ccc([N+](=O)[O-])cc2)=N1`, the MIC was over 128 µM.
The same measure, in the same setting: next, `O=C(OCc1ccccc1)[C@@H]1COC(c2ccc(Br)nc2)=N1`: 21.1 µM (≈ 7.62 µg/mL).
For the compound `O=C(OCc1ccccc1)[C@@H]1COC(c2ccc(F)cc2[N+](=O)[O-])=N1`, inhibition of growth (MIC) required 40.4 µM (≈ 13.9 µg/mL).
Compound `Cc1ccc(-c2nc(C(=O)OCc3ccccc3)co2)cn1` registered a minimum inhibitory concentration (MIC) of 10.2 µM (≈ 3 µg/mL). This MIC is about 4-fold lower than that of the compound before.
As to `COc1ccc(-c2nc(C(=O)OCc3ccccc3)c(C)o2)cc1`, the MIC was 15.8 µM (≈ 5.11 µg/mL).
In turn, `CCCCOc1ccc(-c2nc(C(=O)OCc3ccccc3)co2)cc1` came in with an MIC of 3.83 µM (≈ 1.35 µg/mL). This MIC is about 4.1-fold lower than that of the compound before.
Compound `COC(=O)[C@@H]1COC(c2cccc(Cl)c2)=N1` displayed a minimal inhibitory concentration (MIC) of 68.7 µM (≈ 16.5 µg/mL).
`COc1ccccc1-c1nc(C(=O)OCc2ccccc2)co1`: the lowest concentration to inhibit growth (MIC) was 7.54 µM (≈ 2.33 µg/mL).
`O=C(OCc1ccccc1)c1coc(-c2ccc([N+](=O)[O-])cc2OCc2ccccc2)n1` yielded an MIC of over 128 µM.
Turning to `Cc1oc(-c2ccccc2O)nc1C(=O)O`, the MIC is over 128 µM.
Regarding `O=C(OCc1ccccc1)[C@@H]1COC(Cc2ccccc2)=N1`, the MIC is over 128 µM.
The compound `O=C(OCc1ccccc1)c1coc(-c2ccc(Cl)c(F)c2)n1` registered an MIC of 22.4 µM (≈ 7.43 µg/mL).
On to `O=C(OCc1ccccc1)[C@@H]1COC(c2cccc(F)c2)=N1`, for which the lowest concentration to inhibit growth (MIC) was 6.86 µM (≈ 2.05 µg/mL).
Take `CC(C)Oc1ccc(C2=N[C@H](C(=O)OCc3ccccc3)CO2)cc1`: it took 14.9 µM (≈ 5.06 µg/mL) to inhibit growth (MIC).
Still for that read-out and setting: to `O=C(OCc1ccccc1)c1coc(-c2cccnc2S(=O)(=O)c2ccccc2)n1` belongs over 128 µM.
With `Cc1ccc(C2=N[C@H](C(=O)OCc3ccccc3)CO2)cn1`, it took 122 µM (≈ 36.2 µg/mL) to inhibit growth (MIC).

A further assay concerns Mycobacterium tuberculosis. The assay is described as follows: Antimycobacterial activity against Mycobacterium tuberculosis H37Rv ATCC 27294 in GAS medium after 1 week by microplate alamar blue assay. The class given is functional. The conditions noted are these: H37Rv ATCC 27294, 168 h.
Take `COc1ccc(-c2nc(C(=O)OCc3ccccc3)co2)cc1OC`: the minimum inhibitory concentration (MIC) is 16 µM (≈ 5.43 µg/mL).
The same measure, in the same setting: next, `O=C(OCc1ccccc1)[C@@H]1COC(c2ccc(Cl)cc2)=N1`: 61 µM (≈ 19.3 µg/mL); `N#Cc1cccc(-c2nc(C(=O)OCc3ccccc3)co2)c1`: 25.2 µM (≈ 7.67 µg/mL).
On the same count and under the same terms, to `O=C(OCc1ccccc1)c1coc(-c2cccnc2)n1` belongs 3.82 µM (≈ 1.07 µg/mL); to `O=C(OCc1ccccc1)c1coc(-c2cccc(Cl)c2OCc2ccccc2)n1`, 5.4 µM (≈ 2.27 µg/mL).
Same read-out and setting: next, `O=C(OCc1ccccc1)[C@@H]1COC(c2cccc(Cl)c2OCc2ccccc2)=N1`: 6.3 µM (≈ 2.66 µg/mL).
`CC(C)Oc1ccc(-c2nc(C(=O)OCc3ccccc3)co2)cc1` came in with an MIC of 1.95 µM (≈ 0.658 µg/mL). Against the preceding compound, the MIC is about 3.2-fold lower.
`COc1ccc(C2=N[C@H](C(=O)OCc3ccccc3)CO2)cc1OC` showed an MIC of 39 µM (≈ 13.3 µg/mL). This MIC is about 20-fold higher than that of the compound before.
Compound `COC(=O)[C@@H]1COC(c2ccccc2OCc2ccccc2)=N1` returned a minimum inhibitory concentration (MIC) of 118 µM (≈ 36.7 µg/mL).
Take `O=C(OCc1ccccc1)c1coc(-c2ccccn2)n1`: the minimum inhibitory concentration (MIC) was determined as 2 µM (≈ 0.561 µg/mL).
`O=C(OCc1ccccc1)[C@@H]1COC(c2ccc(Cl)c(F)c2)=N1` returned a minimal inhibitory concentration (MIC) of 52 µM (≈ 17.4 µg/mL).
Take `COC(=O)[C@@H]1COC(c2ccc([N+](=O)[O-])cc2)=N1`: the minimum inhibitory concentration (MIC) is over 128 µM.
As to `O=C(OCc1ccccc1)[C@@H]1COC(c2ccc(Br)nc2)=N1`, the MIC is 22.9 µM (≈ 8.27 µg/mL).
For `O=C(OCc1ccccc1)[C@@H]1COC(c2ccc(F)cc2[N+](=O)[O-])=N1`, 30.7 µM (≈ 10.6 µg/mL) was the least that counted as inhibitory (MIC).
For `Cc1ccc(-c2nc(C(=O)OCc3ccccc3)co2)cn1`, the MIC was 3.01 µM (≈ 0.886 µg/mL).
Still for that read-out and setting: to `COc1ccc(-c2nc(C(=O)OCc3ccccc3)c(C)o2)cc1` belongs 47.4 µM (≈ 15.3 µg/mL).
Take `CCCCOc1ccc(-c2nc(C(=O)OCc3ccccc3)co2)cc1`: the minimum inhibitory concentration (MIC) came out at 1.76 µM (≈ 0.618 µg/mL).
`COC(=O)[C@@H]1COC(c2cccc(Cl)c2)=N1` returned an MIC of over 128 µM.
On to `COc1ccccc1-c1nc(C(=O)OCc2ccccc2)co1`, for which the MIC amounted to 3.88 µM (≈ 1.2 µg/mL). This counts as single-digit micromolar.
On the same count and under the same terms, next, `O=C(OCc1ccccc1)c1coc(-c2ccc([N+](=O)[O-])cc2OCc2ccccc2)n1`: over 128 µM; `Cc1oc(-c2ccccc2O)nc1C(=O)O`: over 128 µM.
Turning to `O=C(OCc1ccccc1)[C@@H]1COC(Cc2ccccc2)=N1`, the minimum inhibitory concentration (MIC) is over 128 µM.
`O=C(OCc1ccccc1)c1coc(-c2ccc(Cl)c(F)c2)n1` gave a minimum inhibitory concentration (MIC) of 2.87 µM (≈ 0.952 µg/mL).
Still for that read-out and setting: next, `O=C(OCc1ccccc1)[C@@H]1COC(c2cccc(F)c2)=N1`: 60.7 µM (≈ 18.2 µg/mL); `CC(C)Oc1ccc(C2=N[C@H](C(=O)OCc3ccccc3)CO2)cc1`: 3.2 µM (≈ 1.09 µg/mL).
In the case of `O=C(OCc1ccccc1)c1coc(-c2cccnc2S(=O)(=O)c2ccccc2)n1`, the minimum inhibitory concentration (MIC) was 66.2 µM (≈ 27.8 µg/mL).
On the same count and under the same terms, to `Cc1ccc(C2=N[C@H](C(=O)OCc3ccccc3)CO2)cn1` belongs 73 µM (≈ 21.6 µg/mL).

The record behind these values is ChEMBL document CHEMBL1157845, “Structure-activity relationship of new anti-tuberculosis agents derived from oxazoline and oxazole benzyl esters” (Eur J Med Chem, 2010).
